# Source: patent publication US20040116652A1, “Method for producing and using novel human defensins as biologically active proteins for treating infections and other diseases” (priority 2000, published 2004)
# Bridge positions count the residues as written; N and C are the ends. Ends that are not written are not given here.
# Tests used:
# Assay in all cases: radial diffusion assay, antimicrobial effect
# Assay type in all cases: cell-based
# Parameters in all cases: key: (+) means the formation of an inhibition halo; (−) means no formation of an inhibition halo
# Staphylococcus carnosus = test system: Staphylococcus carnosus
# Description: (§1) In a radial diffusion assay, the activities stated in Table 1 could be measured for the peptides against different bacterial strains. In the Table, (+) means the formation of an inhibition halo, and (−) means no formation of an inhibition halo.
# Escherichia coli = test system: Escherichia coli
# Description: as §1
# Saccharomyces cerevisiae = test system: Saccharomyces cerevisiae
# Description: as §1
Sequence,formation of an inhibition halo (Staphylococcus carnosus),formation of an inhibition halo (Escherichia coli),formation of an inhibition halo (Saccharomyces cerevisiae)
"FIGLRRCLMGLGRCRDHCNVDEKEIQKCKMKKCCVGPKVVKLIK (disulfide 7-33, 14-28, 18-34) [hBD19]",(+),(+),(−)
"NTICHMQQGICRLFFCHSGEKKRGICSDPWNRCCVSNTDEEGKEKPEMD (disulfide 4-33, 11-26, 16-34) [hBD10]",(+),(+),(+)
"TPGGTQRCWNLYGKCRYRCSKKERVYVYCINNKMCCVKPKYQPKERWWPF (disulfide 8-35, 15-29, 19-36) [hBD17]",(+),(+),(+)
